Where two headings read alike, the source gives them in different places.
Experiments:
HT-29 = test: MTT assay, antiproliferative effect on HT-29; format: cell-based, human; details: Homo sapiens
Protocol: (§1) Human CRC (HCT116 and HT-29) and PCa (DU145 and PC3) cell lines were purchased from the American Type Culture Collection (ATCC—LGC Standards, Molsheim, France). All cells were grown in RPMI 1640 medium supplemented with 10% FBS, 1% L-glutamine, 100 U/mL penicillin, and 100 μg/mL streptomycin. Cultures were maintained in a humidified atmosphere containing 5% CO2 at 37 °C. Cells were seeded in 75 cm^2 culture flasks at 1.2 × 10^4 cells/cm^2 for HCT116, DU145, and PC3 cells, and 2.0 × 10^4 for HT-29 cells. Cells were grown for 24 h in culture medium prior to exposure or not to obtain the synthesized compounds. Stock solutions (10^−2 M in DMSO) of each compound were diluted in culture medium to obtain appropriate final concentrations.
(§2) • (a) MTT assay: The antiproliferative effect of all compounds was determined using MTT assay (a metabolic activity test). Briefly, cells were seeded in 96-well culture plates at 4 × 10^3 cells/well for HCT116, PC3, and DU145 cells and 6 × 10^3 cells/well for HT-29 cells (100 µL/well), and grown for 24 h in culture medium prior to exposure or not to obtain compounds 1–15 with concentrations ranging from 5 nM to 50 μM. After 24 and 48 h of treatment, MTT (5 mg/mL in PBS) was added and incubated for another 3 h. MTT was then removed from the wells before adding 100 μL/well of DMSO. The optical density was detected with a microplate reader (Multiskan FC, Thermoscientific, Bordeaux, France) at 550 nm and cell viability was expressed as a percentage of each treatment condition compared to control cells. IC50 values were calculated for all compounds from the dose–response curve. Data are expressed as the arithmetic means ± standard error of the mean (SEM) of separate experiments. All experiments were performed at least in triplicate. • (b) Trypan blue dye exclusion method: Cells were grown for 24 h then treated with compounds 10 and 13 at indicated concentrations. After 48 h of treatment, cells were trypsinized and resuspended in complete medium. Each sample was mixed with Trypan blue solution (0.14% in HBSS, Invitrogen-GIBCO, ThermoFisher, Illkirch, France). Colored (non-viable) and dye-excluding (viable) cells were counted with the LUNA-II automated cell Counter (Logos Biosystems; MC2, Aubière, France). The control was normalized to 100% including viable and dead cells. The results indicated on the histograms were expressed as the percentage of cells compared to the control. IC50 values were determined from the percentages of viable cells compared to the control.

[1] = tested on: human PCa (DU145 and PC3) cell lines; test: MTT assay, summary statements for PCa cells; format: cell-based; details: Homo sapiens, DU-145, DU145 and PC3, text summary; read-out: IC50 towards PCa cells
Protocol: as §1, §2

[2] = HT-29, 24 h, 24 h, read-out: IC50 HT-29 24 h
[3] = HT-29, 48 h, 48 h, read-out: IC50 HT-29 48 h

Row | SMILES | IC50 (HT-29; [2]) [nM] | IC50 (HT-29; [3]) [nM] | IC50 [1] [nM]
1 | COc1cc(C(=O)/C=C/c2c[nH]c3ccccc23)cc(OC)c1OC [chalcone 10, (E)-3-(1H-indol-3-yl)-1-(3,4,5-trimethoxyphenyl)prop-2-en-1-one] | 41 ± 1 | 28 ± 1 | 17 to 31
2 | COc1cc(C(=O)/C=C/c2coc3ccc(C)cc3c2=O)cc(OC)c1OC [chalcone 13, (E)-6-methyl-3-(3-oxo-3-(3,4,5-trimethoxyphenyl)prop-1-en-1-yl)-4H-chromen-4-one] | 3880 ± 80 | 3100 ± 170 | 
